From publication PMC12311865, “In Vitro Evaluation of the Potential Interactions of Zearalenone-14-sulfate and Zearalenone-14-glucuronide with Human Cytochrome P450 Enzymes, Organic Anion Transporting Polypeptides, and ATP-Binding Cassette Multidrug Transporters” (ACS Omega, 2025)

Key:
Format in all cases: biochemical
MDR1 = biological target: T1, MDR1 (Homo sapiens, UniProt P08183); test: MDR1 vanadate-sensitive ATPase activity assay; settings: up to 50 μM; Sf9 membrane vesicles
T1 construct: made in house; host or cells: Sf9 insect cells (baculovirus)
Procedure: (§1) ATPase activity was determined in Sf9 membrane vesicles containing human MDR1 or human BCRP prepared as described. − Appropriate amounts of vesicles (10 μg/50 μL) were used in the assays. Membrane vesicles were incubated with Mg-ATP (3 mM) for 25 min at 37 °C. Effects of the test compounds were examined up to 50 μM concentrations. […] ABC transporter function was determined as vanadate-sensitive ATPase activity. Liberated inorganic phosphate (Pi) was measured by a colorimetric reaction, as it has been reported. After 25 min, absorbance values were determined at 660 nm by a VictorX plate reader (PerkinElmer).

BCRP [1] = biological target: T2, BCRP (Homo sapiens, UniProt Q9UNQ0); test: BCRP vanadate-sensitive ATPase activity assay; settings: for effect on BCRP-dependent ATPase activity: up to 50 μM, Z14S effect seen even at 2 μM
T2 construct: made in house; host or cells: Sf9 insect cells (baculovirus)
T2 sequence (Q9UNQ0 1-655): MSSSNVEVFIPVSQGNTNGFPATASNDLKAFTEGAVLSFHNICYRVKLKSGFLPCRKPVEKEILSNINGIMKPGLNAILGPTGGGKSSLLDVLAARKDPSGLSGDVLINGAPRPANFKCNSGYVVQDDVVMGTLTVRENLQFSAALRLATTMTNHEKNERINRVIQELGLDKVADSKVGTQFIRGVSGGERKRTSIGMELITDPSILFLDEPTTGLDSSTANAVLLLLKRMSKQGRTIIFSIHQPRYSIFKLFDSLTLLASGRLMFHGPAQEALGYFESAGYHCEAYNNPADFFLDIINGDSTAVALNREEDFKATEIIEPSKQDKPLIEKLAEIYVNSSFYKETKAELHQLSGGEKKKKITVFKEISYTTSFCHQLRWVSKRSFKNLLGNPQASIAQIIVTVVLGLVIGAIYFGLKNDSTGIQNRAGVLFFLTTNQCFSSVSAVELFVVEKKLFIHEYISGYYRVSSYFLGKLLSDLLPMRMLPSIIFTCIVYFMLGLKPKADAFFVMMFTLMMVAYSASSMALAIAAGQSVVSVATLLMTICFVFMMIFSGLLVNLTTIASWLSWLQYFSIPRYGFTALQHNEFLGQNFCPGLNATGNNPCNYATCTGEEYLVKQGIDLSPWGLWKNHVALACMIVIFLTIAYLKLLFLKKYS
Procedure: as §1

BCRP [2] = biological target: T2, BCRP; test: BCRP-mediated LY vesicular transport (Sf9 membrane vesicles); settings: for inhibition at 10 min, 50 μM: human, read-out: inhibition of BCRP-driven vesicular uptake of LY
Procedure: Experiments were performed in insect membrane vesicles, as described previously. Briefly, human MDR1, BCRP, and MRP2 were expressed in Sf9 insect cells by baculoviruses. On the third day of infection, cells were collected and membrane vesicles were obtained by mechanical disruption and differential centrifugation. To get full activity for BCRP, the cholesterol levels of the vesicles were adjusted to the level of mammalian membranes. Vesicles were stored at −80 °C, and the total protein content of the preparations was measured by the Lowry method (used as a reference for the quantity). Membrane vesicles (50 μg protein/sample) were incubated at 37 °C for 10 min (without or with 4 mM Mg-ATP) in 50 μL volume in the presence of transporter-specific fluorescent substrates: N-methylquinidine (NMQ; 5 μM) for MDR1, lucifer yellow (LY; 10 μM) for BCRP, and 5(6)-carboxy-2′,7′-dichlorofluorescein (CDCF; 5 μM) for MRP2. […] ATP-dependent (4 mM) uptake of fluorescent substrates was examined in the presence of 0–50 μM concentrations of mycotoxins (ZEN, Z14S, or Z14GA). […] After incubation, samples were rapidly filtered and washed on a filter plate (MSFBN6B10; Millipore, Burlington, MA). Accumulated substrates in vesicles were solved back from the filter with 100 μL of SDS (10%) and centrifuged into another plate. A 100 μL volume of fluorescence stabilizer was added to the samples (DMSO for LY, 0.1 M H2SO4 for NMQ, and 0.1 M NaOH for CDCF). Fluorescence of samples was measured by plate readers (Victor X3 and Enspire PerkinElmer; Waltham, MA) at appropriate wavelengths (filters in the Victor X3 reader were 405/535 nm for LY and 492/635 nm for CDCF; while in the Enspire reader, NMQ was measured at 360/430 nm excitation/emission wavelengths). ABC-related transport was calculated by subtracting passive uptake measured without Mg-ATP from values measured in the presence of Mg-ATP.

human MRP2 = biological target: T3, human MRP2 (Homo sapiens, UniProt Q92887); test: biochemical; settings: CDCF 5 μM
T3 construct: made in house; host or cells: Sf9 insect cells (baculovirus)
Procedure: Experiments were performed in insect membrane vesicles, as described previously. Briefly, human MDR1, BCRP, and MRP2 were expressed in Sf9 insect cells by baculoviruses. On the third day of infection, cells were collected and membrane vesicles were obtained by mechanical disruption and differential centrifugation. To get full activity for BCRP, the cholesterol levels of the vesicles were adjusted to the level of mammalian membranes. Vesicles were stored at −80 °C, and the total protein content of the preparations was measured by the Lowry method (used as a reference for the quantity). […] A 100 μL volume of fluorescence stabilizer was added to the samples (DMSO for LY, 0.1 M H2SO4 for NMQ, and 0.1 M NaOH for CDCF). Fluorescence of samples was measured by plate readers (Victor X3 and Enspire PerkinElmer; Waltham, MA) at appropriate wavelengths (filters in the Victor X3 reader were 405/535 nm for LY and 492/635 nm for CDCF; while in the Enspire reader, NMQ was measured at 360/430 nm excitation/emission wavelengths). ABC-related transport was calculated by subtracting passive uptake measured without Mg-ATP from values measured in the presence of Mg-ATP.

CYP2C9 = biological target: T4, CYP2C9 (Homo sapiens, UniProt P11712); test: in vitro; settings: diclofenac 5 μM, 120 min
T4 construct: purchased Merck
Procedure: Inhibitory actions of ZEN conjugates on CYP2C9 and CYP3A4 enzymes were examined employing CypExpress Cytochrome P450 human kits. , Briefly, incubates (200 μL) contained the substrate (5 μM; diclofenac for CYP2C9 and testosterone for CYP3A4), the CypExpress reagent (6 mg/mL of CYP2C9 kit or 15 mg/mL of CYP3A4 kit; also including the glucose-6-phosphate dehydrogenase enzyme), and the test compounds (each 20 μM) in 0.05 M potassium phosphate buffer (pH 7.5). CYP3A4 assay was supplemented with additional G6P and NADP^+ (both 400 μM). Enzyme assays were started with the addition of the enzyme. After 120 min (CYP2C9) or 180 min (CYP3A4) incubation at 700 rpm and 30 °C in a thermomixer, the reaction was stopped with 100 μL of ice-cold methanol. Then, the samples were centrifuged for 10 min at 14,000g and room temperature. The supernatants were gently removed and directly analyzed by HPLC (see Section ).
Diclofenac and 4′-hydroxydiclofenac (CYP2C9 assay) were quantified using the previously reported HPLC-UV assay, , without modification. Briefly, the isocratic elution, with 1.0 mL/min flow rate, was performed with orthophosphoric acid (6 mM) and acetonitrile (48:52 v/v %) mobile phase, applying a Security Guard (C8, 4.0 × 3.0 mm; Phenomenex, Torrance, CA) precolumn and a Mediterranea Sea8 (C8, 150 × 4.6 mm, 5 μm; Teknokroma, Barcelona, Spain) analytical column at room temperature (injected volume: 20 μL). Diclofenac and 4′-hydroxydiclofenac were detected at 275 nm.

T1 sequence (P08183 whole entry): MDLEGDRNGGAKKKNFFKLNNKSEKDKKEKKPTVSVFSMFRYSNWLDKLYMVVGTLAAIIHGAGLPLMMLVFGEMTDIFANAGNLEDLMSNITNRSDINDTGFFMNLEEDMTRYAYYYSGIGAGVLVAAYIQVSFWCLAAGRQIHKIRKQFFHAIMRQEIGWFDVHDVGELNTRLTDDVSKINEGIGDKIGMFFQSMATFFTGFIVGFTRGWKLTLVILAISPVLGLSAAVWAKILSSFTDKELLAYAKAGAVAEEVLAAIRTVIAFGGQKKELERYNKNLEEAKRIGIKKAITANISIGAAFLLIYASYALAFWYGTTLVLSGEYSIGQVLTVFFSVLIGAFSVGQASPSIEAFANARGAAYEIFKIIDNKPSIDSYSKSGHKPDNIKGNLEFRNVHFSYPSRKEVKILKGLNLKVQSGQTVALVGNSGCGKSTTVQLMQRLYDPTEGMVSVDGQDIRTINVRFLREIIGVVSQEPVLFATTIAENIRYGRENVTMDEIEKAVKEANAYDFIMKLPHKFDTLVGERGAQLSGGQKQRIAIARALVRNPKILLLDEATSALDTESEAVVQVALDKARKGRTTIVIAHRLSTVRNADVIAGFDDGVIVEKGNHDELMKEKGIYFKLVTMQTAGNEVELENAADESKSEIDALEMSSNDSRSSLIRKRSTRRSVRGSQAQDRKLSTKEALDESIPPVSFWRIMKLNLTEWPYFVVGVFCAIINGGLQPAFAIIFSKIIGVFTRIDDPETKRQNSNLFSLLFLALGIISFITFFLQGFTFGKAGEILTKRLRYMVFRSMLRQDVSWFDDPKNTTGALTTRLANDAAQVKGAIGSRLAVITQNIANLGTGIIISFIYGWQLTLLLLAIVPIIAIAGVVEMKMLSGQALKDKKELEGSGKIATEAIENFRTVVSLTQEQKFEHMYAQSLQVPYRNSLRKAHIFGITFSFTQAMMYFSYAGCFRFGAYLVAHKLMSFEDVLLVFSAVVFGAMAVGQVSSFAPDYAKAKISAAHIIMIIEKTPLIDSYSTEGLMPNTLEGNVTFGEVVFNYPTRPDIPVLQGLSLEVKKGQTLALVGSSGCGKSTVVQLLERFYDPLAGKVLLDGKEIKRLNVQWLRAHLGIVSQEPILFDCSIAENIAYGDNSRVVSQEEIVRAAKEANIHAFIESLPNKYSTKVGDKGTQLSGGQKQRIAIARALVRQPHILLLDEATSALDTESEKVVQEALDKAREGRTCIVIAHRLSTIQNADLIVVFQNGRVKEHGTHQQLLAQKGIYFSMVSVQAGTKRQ
T4 sequence (P11712 whole entry): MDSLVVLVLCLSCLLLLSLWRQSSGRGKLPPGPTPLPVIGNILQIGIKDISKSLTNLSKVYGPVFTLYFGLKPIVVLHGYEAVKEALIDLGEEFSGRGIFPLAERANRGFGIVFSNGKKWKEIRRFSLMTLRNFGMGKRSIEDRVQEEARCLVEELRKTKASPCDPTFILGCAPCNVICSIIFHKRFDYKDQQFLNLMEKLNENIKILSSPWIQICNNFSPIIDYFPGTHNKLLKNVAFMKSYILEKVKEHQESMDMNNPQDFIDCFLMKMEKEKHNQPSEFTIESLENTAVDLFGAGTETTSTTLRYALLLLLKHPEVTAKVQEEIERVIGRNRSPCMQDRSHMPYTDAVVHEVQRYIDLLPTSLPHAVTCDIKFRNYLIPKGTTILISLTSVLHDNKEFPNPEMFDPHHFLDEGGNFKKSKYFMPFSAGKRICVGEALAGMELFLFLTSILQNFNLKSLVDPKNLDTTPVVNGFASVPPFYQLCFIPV
T3 sequence (Q92887 whole entry): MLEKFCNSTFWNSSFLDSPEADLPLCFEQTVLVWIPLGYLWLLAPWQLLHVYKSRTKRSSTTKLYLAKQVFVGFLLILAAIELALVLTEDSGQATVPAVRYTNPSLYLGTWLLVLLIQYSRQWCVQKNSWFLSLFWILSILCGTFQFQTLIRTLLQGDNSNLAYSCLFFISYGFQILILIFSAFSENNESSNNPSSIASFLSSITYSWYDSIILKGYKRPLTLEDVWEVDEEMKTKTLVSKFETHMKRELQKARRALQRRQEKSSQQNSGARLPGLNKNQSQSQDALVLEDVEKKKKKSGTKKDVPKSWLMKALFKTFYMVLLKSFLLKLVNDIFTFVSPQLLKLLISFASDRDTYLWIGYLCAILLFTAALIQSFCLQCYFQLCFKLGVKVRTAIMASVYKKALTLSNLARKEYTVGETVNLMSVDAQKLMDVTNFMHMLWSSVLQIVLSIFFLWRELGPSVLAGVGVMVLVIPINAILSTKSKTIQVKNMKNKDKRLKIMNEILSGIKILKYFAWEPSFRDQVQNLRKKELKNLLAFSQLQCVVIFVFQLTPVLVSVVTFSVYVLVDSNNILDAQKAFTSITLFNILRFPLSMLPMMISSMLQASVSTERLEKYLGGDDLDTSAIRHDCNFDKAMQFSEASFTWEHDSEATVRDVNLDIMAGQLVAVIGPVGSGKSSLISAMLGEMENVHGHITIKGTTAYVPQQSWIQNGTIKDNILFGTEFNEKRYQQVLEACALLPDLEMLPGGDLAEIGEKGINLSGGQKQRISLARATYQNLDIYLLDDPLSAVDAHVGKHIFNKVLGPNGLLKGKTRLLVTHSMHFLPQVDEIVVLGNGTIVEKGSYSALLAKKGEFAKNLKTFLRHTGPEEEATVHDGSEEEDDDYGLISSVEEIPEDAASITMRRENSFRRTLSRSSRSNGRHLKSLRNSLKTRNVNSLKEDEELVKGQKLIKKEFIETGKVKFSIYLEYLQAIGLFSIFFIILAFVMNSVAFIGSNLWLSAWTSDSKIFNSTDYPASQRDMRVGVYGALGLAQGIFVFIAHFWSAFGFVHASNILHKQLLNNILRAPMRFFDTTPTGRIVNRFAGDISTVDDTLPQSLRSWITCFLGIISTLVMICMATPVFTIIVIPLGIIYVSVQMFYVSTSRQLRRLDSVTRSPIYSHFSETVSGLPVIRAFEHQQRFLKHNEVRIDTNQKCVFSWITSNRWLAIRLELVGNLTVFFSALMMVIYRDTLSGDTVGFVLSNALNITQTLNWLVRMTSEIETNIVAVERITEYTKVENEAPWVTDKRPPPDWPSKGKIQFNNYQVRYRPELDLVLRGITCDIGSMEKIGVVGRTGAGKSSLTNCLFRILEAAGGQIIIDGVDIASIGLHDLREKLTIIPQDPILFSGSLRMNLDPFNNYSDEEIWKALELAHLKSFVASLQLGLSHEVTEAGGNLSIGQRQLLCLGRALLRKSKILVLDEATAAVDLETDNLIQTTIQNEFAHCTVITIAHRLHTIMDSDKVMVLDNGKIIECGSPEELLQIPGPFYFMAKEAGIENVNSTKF

| Structure (SMILES) | effect on MDR1 ATPase activity (MDR1) | effect on BCRP-dependent ATPase activity (BCRP [1]) | effect on BCRP-driven vesicular uptake of LY (BCRP [2]; 0–50 μM, LY 10 μM) | IC50 (human MRP2; Sf9 membrane vesicles, read-out: IC50 for MRP2-mediated CDCF transport) [µM] | inhibition of CYP2C9 (decrease in metabolite formation) (CYP2C9; each 20 μM) | IC50 (BCRP [2]) [µM] | inhibition at 10 min, 50 μM (BCRP [2]; LY 10 μM) [%] | effect on MRP2-dependent transport of CDCF (human MRP2; 0–50 μM) | inhibition at 120 min, 20 μM (CYP2C9; human, pH 7.5, each 20 μM, read-out: inhibition of CYP2C9 (decrease in metabolite formation)) [%] | effect on basal ATPase activity of BCRP (BCRP [1]; 50 μM) |
| --- | --- | --- | --- | --- | --- | --- | --- | --- | --- | --- |
| C[C@H]1CCCC(=O)CCC/C=C/c2cc(O[C@@H]3O[C@H](C(=O)O)[C@@H](O)[C@H](O)[C@H]3O)cc(O)c2C(=O)O1 [Z14GA, Zearalenone-14-glucuronide] | did not modify | did not affect | weak inhibitory action | > 10 | no effects |  |  |  |  |  |
| C[C@H]1CCCC(=O)CCC/C=C/c2cc(OS(=O)(=O)O)cc(O)c2C(=O)O1 [Z14S, zearalenone-14-sulfate] | did not modify | moderate increase |  |  |  | 4.4 | > 90 | weak inhibitory effect | ~45 |  |
| C[C@H]1CCCC(=O)CCC/C=C/c2cc(O)cc(O)c2C(=O)O1 [ZEN, Zearalenone] | considerable elevation even at 5 μM concentration | no relevant impact |  |  |  | 2.6 | > 90 |  |  | slight inhibition |
